From patent US20260109721A1, “IONIZABLE CATIONIC LIPIDS INCORPORATING SILICON: SYNTHESIS AND LNP FORMULATION” (priority 2023, published 2026) come the findings set out here.

Data set [1] in a line: LNP size, PDI and zeta potential by Dynamic Light Scattering (Method A). The data set is classed as physicochemical. The following applies: LNP formulated with the lipid, DLS. The method, boiled down:
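Dynamic light scattering gave size, polydispersity and zeta potential of Method A nanoparticles. These were made from Luc mRNA in 10 mM citrate pH 4.0 combined with ethanol lipid master mix plus ionizable lipid on a dean-type chip (3:1, TFR around 12 ml/min).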

Data set [2] has as its system HeLa cells. As to the kind of experiment: Transfection efficiency with Luciferase (SecNLuc) mRNA, Nano-Glo assay (Method A). The data set is classed as cell-based. The following applies: Luc mRNA, 24 h, luminescence; for Transfection 10 ng mRNA: 10 ng mRNA/well; for Transfection 50 ng mRNA: 50 ng mRNA/well; for Transfection 100 ng mRNA: 100 ng mRNA/well. The method, boiled down:
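Luminescence from secreted NanoLuc, read with Nano-Glo reagent, gave transfection efficiency 24 h after HeLa cells were dosed. Method A lipid nanoparticles delivered SecNLuc mRNA at 10, 50 or 100 ng per well in triplicate.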

Take `CCCCCCCC/C=C\CCCCCCCCOC(=O)C(C)(C)CC(OCCCCCCCC/C=C\CCCCCCCC)O[Si](C)(C)OCCCCCCN(C)CCO` (centres unmarked) [Example 93, (Z)-octadec-9-en-1-yl 1-hydroxy-3,11,11,15,15-pentamethyl-13-(((Z)-octadec-9-en-1-yl)oxy)-10,12-dioxa-3-aza-11-silahexadecan-16-oate]: in data set [1], the PDI was 0.15, the “Size (nm)” value is recorded as 82.7 nm and the “Zeta potential (mV)” value is listed as −14.61 mV. Moreover, in data set [2], the “Transfection 10 ng mRNA” value is 2.73E+03, the “Transfection 50 ng mRNA” value turned out to be 2.75E+04 and the “Transfection 100 ng mRNA” value was 1.19E+05.

Take `CCCCCCCC/C=C\CCCCCCCCOC(=O)C(C)(C)CCC(OCCCCCCCC/C=C\CCCCCCCC)O[Si](C)(C)OCCCCCCN(CCO)CCO` (centres unmarked) [Example 94, (Z)-octadec-9-en-1-yl 1-hydroxy-3-(2-hydroxyethyl)-11,11,16,16-tetramethyl-13-(((Z)-octadec-9-en-1-yl)oxy)-10,12-dioxa-3-aza-11-silaheptadecan-17-oate]: in data set [1], the PDI is reported as 0.24, the “Size (nm)” value is 93.8 nm and the “Zeta potential (mV)” value is recorded as −12.89 mV. In data set [2], the “Transfection 10 ng mRNA” value amounted to 7.50E+02, the “Transfection 50 ng mRNA” value was 8.22E+03 and the “Transfection 100 ng mRNA” value worked out at 3.14E+04.

Take `CCCCCCCC/C=C\CCCCCCCCOC(=O)C(C)(C)CCC(OCCCCCCCC/C=C\CCCCCCCC)O[Si](C)(C)OCCCCCCN1CCOCC1` (centres unmarked) [Example 95, (Z)-octadec-9-en-1-yl 5-((dimethyl((6-morpholinohexyl)oxy)silyl)oxy)-2,2-dimethyl-5-(((Z)-octadec-9-en-1-yl)oxy)pentanoate]: in data set [1], the PDI is reported as 0.15, the “Size (nm)” value came to 90.33 nm and the “Zeta potential (mV)” value is listed as −20.80 mV. Also, in data set [2], the “Transfection 10 ng mRNA” value is recorded as 1.22E+02, the “Transfection 50 ng mRNA” value was 5.37E+02 and the “Transfection 100 ng mRNA” value worked out at 9.82E+02.

With `CCCCCCCC/C=C\CCCCCCCCOC(=O)C(C)(C)CC(OCCCCCCCC/C=C\CCCCCCCC)O[Si](C)(C)OCCCCCCN(CCO)CCN(CCO)CCCCCCO[Si](C)(C)OC(CC(C)(C)C(=O)OCCCCCCCC/C=C\CCCCCCCC)OCCCCCCCC/C=C\CCCCCCCC` (centres unmarked) [Example 96, di((Z)-octadec-9-en-1-yl) 14,17-bis(2-hydroxyethyl)-2,2,6,6,25,25,29,29-octamethyl-4,27-bis(((Z)-octadec-9-en-1-yl)oxy)-5,7,24,26-tetraoxa-14,17-diaza-6,25-disilatriacontanedioate], in data set [1], the PDI was found to be 0.14, the “Size (nm)” value is 81.42 nm and the “Zeta potential (mV)” value was −17.77 mV. In data set [2], the “Transfection 10 ng mRNA” value is 3.94E+02, the “Transfection 50 ng mRNA” value turned out to be 2.15E+03 and the “Transfection 100 ng mRNA” value came out at 2.94E+03.

As to `C#CCN(C)CCCCCCO[Si](C)(C)OC(CC(C)(C)C(=O)OCCCCCCCC/C=C\CCCCCCCC)OCCCCCCCC/C=C\CCCCCCCC` (centres unmarked) [Example 97, (Z)-octadec-9-en-1-yl 4,12,12,16,16-pentamethyl-14-(((Z)-octadec-9-en-1-yl)oxy)-11,13-dioxa-4-aza-12-silaheptadec-1-yn-17-oate], in data set [1], the PDI is listed as 0.26, the “Size (nm)” value was found to be 101.9 nm and the “Zeta potential (mV)” value was −22.01 mV. For the same compound, in data set [2], the “Transfection 10 ng mRNA” value was 3.01E+02, the “Transfection 50 ng mRNA” value is listed as 1.34E+03 and the “Transfection 100 ng mRNA” value is given as 1.28E+03.

For `CCCCCCCCCCCOC(=O)CCCCCN(CCO)CCCCCCCC(=O)OC(CCCCCCCC)CCCCCCCC` [SM-102, reference compound], in data set [1], the “Size (nm)” value was 77.03 nm and the “Zeta potential (mV)” value is recorded as −5.03 mV. In addition, in data set [2], the “Transfection 10 ng mRNA” value is 2.15E+06, the “Transfection 50 ng mRNA” value is 7.53E+06 and the “Transfection 100 ng mRNA” value is recorded as 7.61E+06.
